Where a name gives a salt, the structure may show the parent alone.

Experiment [1] concerns the target S1P1 human receptor (Homo sapiens (Human), UniProt P21453). In words: S1P1 [35S]-GTPgamaS binding assay (agonist activity). Format: biochemical. The settings on record: for EC50: GTPgamaS binding, agonist; for Efficacy (% of maximum): S1P1, relative to reference agonist S1P; for EC50S1P1/EC50S1P: potency at S1P1 relative to S1P. As to the method:
Selected Compounds of the Examples were evaluated at Millipore Corporation, USA, using S1P1 receptor; [^35S]-GTPgamaS binding assay. A [^35S]-GTPgamaS binding assay at Millipore was conducted by GPCR Profiler™ Custom Service Laboratory, Temecula, Calif., Millipore, Inc. to monitor dose-dependent agonist selectivity for selected Examples against the S1P1 receptors. The assay was completed with sample compounds subjected to an eight-point, four-fold dose response curve with starting concentration of 10 μM. Selectivity was determined upon initial addition of compounds followed by a 30 minute incubation at 30° C. Following compound incubation, bounded [^35S]-GTPgamaS was determined by filtration and scintillation counting.
Independently, selected compounds were evaluated for S1P1 and S1P3 agonistic activity. The S1P1 assay system was GTPgama-S35 binding in membranes from CHO K1 cells, expressing S1P1 human receptor. The S1P3 assay system was calcium mobilization in CHO K1 cells expressing S1P3 human receptor. […] Compounds were tested initially at a concentration of 10 μM.

For experiment [2], the system named is Human promyelocytic leukemia (HL-60) cells. In words: Cell viability (growth inhibition) assay, MTS. In kind it is cell-based. The settings on record: 50% reduction in cell viability of HL-60 cells, 48 hr incubation. As to the method: In order to measure the apoptotic effect of compounds on the metabolic activity of viable cells, the following assay was performed on Human promyelocytic leukemia cells. The assay utilises the tetrazolium compound (3-(4,5-dimethylthiazol-2-yl)-5-(3-carboxymethoxyphenyl)-2-(4-sulfophenyl)-2H-tetrazolium, inner salt; (MTS) and an electron coupling reagent (phenazine methosulfate; (PMS). MTS is bioreduced by cells into a formazan product the optical absorbance of which is measured directly from 96 well assay plates. The conversion of MTS into aqueous, soluble formazan is accomplished by dehydrogenase enzymes found in metabolically active cells. The quantity of formazan product as measured by the amount of 490 nm absorbance is directly proportional to the number of living cells in culture.
The assay was based on the National Cancer Institute (NCI) protocol, briefly, cells were grown in RPMI 1640 media supplemented with 10% FCS (foetal calf serum) and kept at 37° C. in a humidified environment with 5% CO2.
For the growth inhibition assay, Human promyelocytic leukemia (HL-60) cells were seeded at a density of 10,000 cells per well in 96 well plates in a volume of 100 μl and allowed to grow for 24 h. Compounds were serially diluted in DMSO at concentrations 100 fold higher than used in the assay (100×). Compounds were freshly prepared for each experiment. The 100× stocks were then diluted to 2× stocks into media and immediately, 100 μl of this 2× stock was added to the cells to create the desired final concentration of drug with a DMSO concentration of 1%. One row of each 96 well plate was treated with DMSO alone as a control. Cells were then incubated for a further 48 hr. Metabolic activity was determined using MTS (Promega) (90% 1.6 mg/ml MTS, 10% 1.6 mg/ml PMS (phenazine methosulfate) made fresh in PBS). 50 μl of this mix was added to all wells of the plates and allowed to incubate for 1.5-2 hr. Plates were shaken gently for about 15 min and absorbance was read on a plate reader at 490 nm. Averages were taken of the readings at each point with standard deviation and plotted using MicroCal Origin.

Chain of S1P1 human receptor (P21453 whole entry): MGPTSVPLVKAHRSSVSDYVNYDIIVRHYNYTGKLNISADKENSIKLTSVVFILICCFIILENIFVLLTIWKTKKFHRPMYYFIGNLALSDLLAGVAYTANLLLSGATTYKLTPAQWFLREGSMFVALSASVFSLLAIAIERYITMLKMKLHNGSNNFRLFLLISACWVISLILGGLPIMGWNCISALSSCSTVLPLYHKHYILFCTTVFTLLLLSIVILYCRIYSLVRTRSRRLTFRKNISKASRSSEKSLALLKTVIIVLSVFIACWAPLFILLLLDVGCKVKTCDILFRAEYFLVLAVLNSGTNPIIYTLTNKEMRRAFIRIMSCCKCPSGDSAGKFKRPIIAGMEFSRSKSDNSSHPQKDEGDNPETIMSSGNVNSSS

One may read the EC50 as the concentration needed to bring the measured effect to its halfway point. Low readings indicate greater potency, high ones weaker potency. Consider `NC(CO)(CO)CN1CCc2cc(OCc3ccc(-c4ccccc4C(F)(F)F)cc3)ccc2C1` [Example 39, 2-Amino-2-((6-((2′-(trifluoromethyl)biphenyl-4-yl)methoxy)-3,4-dihydroisoquinolin-2(1H)-yl)methyl)propane-1,3-diol], for which, in experiment [1], the EC50 was greater than 3.24 µM, the “Efficacy (% of maximum)” value was found to be 117% and the EC50S1P1/EC50S1P is greater than 1000.
A word on the IC50: it is the concentration that inhibits the measured activity by half. Low readings indicate greater potency, high ones weaker potency. In turn, `NC(CO)(CO)CCc1ccc(CCCn2cc(C(=O)C(F)(F)F)c3ccccc32)cc1` [Example 11, 1-(1-(3-(4-(3-amino-4-hydroxy-3-(hydroxymethyl)butyl)phenyl)propyl)-1H-indol-3-yl)-2,2,2-trifluoroethanone] came in with an IC50 in experiment [2] (Homo sapiens) of 5.54 ± 2.3 µM.
As for `NC(CO)(CO)CN1CCC2CCCCC2C1` (stereo not drawn) [Example 62, 2-Amino-2-((octahydroisoquinolin-2(1H)-yl)methyl)propane-1,3-diol], the IC50 in experiment [2] (Homo sapiens) was greater than 100 µM.
Same read-out and setting: the value for `COc1ccc2c(C(=O)c3cc(OC)c(OC)c(OC)c3)cn(S(=O)(=O)c3ccc(CCC(N)(CO)CO)cc3)c2c1` [Example 13, (1-(4-(3-Amino-4-hydroxy-3-(hydroxymethyl)butyl)phenylsulfonyl)-6-methoxy-1H-indol-3-yl)(3,4,5-trimethoxyphenyl)methanone] was 0.44 ± 0.04 µM.
The compound `NC(CO)(CO)CCc1ccc(O)c(C23CC4CC(CC(C4)C2)C3)c1` [Example 22, 2-Amino-2-(3-(admantyl)-4-hydroxyphenethyl)propane-1,3-diol hydrochloride salt] returned an IC50 in experiment [2] of 10.5 ± 0.4 µM.
In experiment [1], `CCCCCCCCc1ccc(NCC(N)(CO)CO)cc1` [Example 1, 2-Amino-2-((4-octylphenylamino)methyl)propane-1,3-diol] came in with an EC50 greater than 25 µM and an EC50S1P1/EC50S1P greater than 9259.
Consider `CCCc1ccc(-c2nc(-c3cccc4c3CCN4CC(N)(CO)CO)no2)cc1` [Example 48, 2-Amino-2-((4-(5-(4-propylphenyl)-1,2,4-oxadiazol-3-yl)indolin-1-yl)methyl)propane-1,3-diol], for which, in experiment [1], the EC50 turned out to be 0.0067 µM, the “Efficacy (% of maximum)” value turned out to be 78% and the EC50S1P1/EC50S1P is reported as 0.14.
With `CC(C)Oc1ccc(-c2nc(-c3ccc4c(c3)CCN4CC(N)(CO)CO)no2)cc1Cl` [Example 51, 2-Amino-2-((5-(5-(3-chloro-4-isopropoxyphenyl)-1,2,4-oxadiazol-3-yl)indolin-1-yl)methyl)propane-1,3-diol], in experiment [1], the half-maximal effective concentration (EC50) came to 0.0035 µM, the “Efficacy (% of maximum)” value is reported as 85% and the EC50S1P1/EC50S1P amounted to 0.38.
With `COc1cc(CCc2cccc(CCC(N)(CO)CO)c2)cc(OC)c1OC` [Example 21, 2-Amino-2-(3-(3,4,5-trimethoxyphenethyl)phenethyl)propane-1,3-diol], the IC50 in experiment [2] (Homo sapiens) came out at 28.5 ± 3.21 µM.
In the case of `CCCCCOc1ccc(-c2nc(-c3ccc4c(c3)CCN4CC(N)(CO)CO)no2)cc1Cl` [Example 54, 2-Amino-2-((5-(5-(3-chloro-4-(pentyloxy)phenyl)-1,2,4-oxadiazol-3-yl)indolin-1-yl)methyl)propane-1,3-diol], in experiment [1], the EC50 amounted to 0.0438 µM, the “Efficacy (% of maximum)” value is 73% and the EC50S1P1/EC50S1P is 5.93.
`NC(CO)(CO)CCc1ccc(-c2ccc(O)c(C34CC5CC(CC(C5)C3)C4)c2)cc1` [Example 64, 2-Amino-2-(2-(3′-(1-admantyl)-4′-hydroxybiphenyl-4-yl)ethyl)propane-1,3-diol hydrochloride salt]: the IC50 in experiment [2] came to 3.44 ± 0.12 µM.
For the compound `CCCCCCCCc1ccc(CNCC(N)(CO)CO)cc1` [Example 31, 2-Amino-2-((4-octylbenzylamino)methyl)propane-1,3-diol], the IC50 in experiment [2] (Homo sapiens) was greater than 10 µM.
On to `Cc1ccc(OCCCc2ccc(CCC(N)(CO)CO)cc2)c(C23CC4CC(CC(C4)C2)C3)c1` [Example 29, 2-Amino-2-(4-(3-(2-(1-admanynyl)-4-methylphenoxy)propyl)phenethyl) propane-1,3-diol hydrochloride salt], for which half-maximal inhibition in experiment [2] (IC50) was put at 3.94 ± 0.4 µM.
For the compound `CCCOc1ccc(-c2nc(-c3cccc4c3CCN4CC(N)(CO)CO)no2)cc1I` [Example 44, 2-Amino-2-((4-(5-(3-iodo-4-propoxyphenyl)-1,2,4-oxadiazol-3-yl)indolin-1-yl)methyl)propane-1,3-diol], in experiment [1], the response was half-maximal at 0.0481 µM (EC50), the “Efficacy (% of maximum)” value amounted to 60% and the EC50S1P1/EC50S1P is given as 18.24.
Compound `NC(CO)(CO)CN1CCc2cc(OCc3cccc(F)c3)ccc2C1` [Example 37, 2-Amino-2-((6-(3-fluorobenzyloxy)-3,4-dihydroisoquinolin-2(1H)-yl)methyl)propane-1,3-diol] showed an IC50 in experiment [2] (Homo sapiens) of 26.9 ± 9.16 µM.
In the case of `COc1ccc(CCc2ccc(CCC(N)(CO)CO)cc2)cc1C12CC3CC(CC(C3)C1)C2` [Example 26, 2-Amino-2-(4-(3-(1-admantanyl-4-methoxyphenethyl)phenethyl)propane-1,3-diol hydrochloride salt], in experiment [2], the IC50 stood at 2.29 ± 0.57 µM.
In the case of `CCCOc1ccc(-c2nc(-c3ccc4c(c3)CCN4CC(N)(CO)CO)no2)cc1Br` [Example 56, 2-Amino-2-((5-(5-(3-bromo-4-propoxyphenyl)-1,2,4-oxadiazol-3-yl)indolin-1-yl)methyl)propane-1,3-diol], in experiment [1], the EC50 was 0.0029 µM, the “Efficacy (% of maximum)” value stood at 79% and the EC50S1P1/EC50S1P came out at 0.29.
In the case of `Cl.NC(CO)(CO)CCc1ccc(CCc2ccc(C(=O)c3ccc(F)cc3)cc2)cc1` [Example 12, (4-(4-(3-Amino-4-hydroxy-3-(hydroxymethyl)butyl)phenethyl)phenyl)(4-fluorophenyl)methanone hydrochloride salt], in experiment [1], the midpoint of the response, the EC50, lay at 1.82 µM; the “Efficacy (% of maximum)” value came to 49%; the EC50S1P1/EC50S1P came to 557.
`CCCCCCCCc1ccc2c(ccn2CC(N)(CO)CO)c1` [Example 4, 2-Amino-2-((5-octyl-1H-indol-1-yl)methyl)propane-1,3-diol] displayed an IC50 in experiment [2] (Homo sapiens) of 3.58 ± 0.04 µM.
Same read-out and setting: the value for `COc1cc(CCc2ccc3c(c2)CCN3CC(N)(CO)CO)cc(OC)c1OC` [Example 6, 2-Amino-2-((5-(3,4,5-trimethoxyphenethyl)indolin-1-yl)methyl)propane-1,3-diol] was 44.9 ± 8.85 µM.
Take `CCOc1ccc(-c2nc(-c3cccc4c3CCN4CC(N)(CO)CO)no2)cc1OC` [Example 55, 2-Amino-2-((4-(5-(4-ethoxy-3-methoxyphenyl)-1,2,4-oxadiazol-3-yl)indolin-1-yl)methyl)propane-1,3-diol]: in experiment [1], it took 0.0316 µM to reach a half-maximal effect (EC50), the “Efficacy (% of maximum)” value is 101% and the EC50S1P1/EC50S1P came to 2.56.
In experiment [1], `CC(C)(C)OC(=O)NC(CO)(CO)CN1CCc2c(OCc3cc4c(Cl)cc(Cl)cc4o3)cccc21` [41(b), t-butyl 1-(4-((4,6-dichlorobenzofuran-2-yl)methoxy)indolin-1-yl)-3-hydroxy-2-(hydroxymethyl)propan-2-ylcarbamate] gave an EC50 greater than 29 µM and an EC50S1P1/EC50S1P of 3066.24.
The like results for `NC(CO)(CO)CN1CCc2cc(CCc3ccc(-c4ccccc4C(F)(F)F)cc3)ccc21` [Example 59, 2-Amino-2-((5-(2-(2′-(trifluoromethyl)biphenyl-4-yl)ethyl)indolin-1-yl)methyl)propane-1,3-diol] were, in that order, greater than 2.13 µM and greater than 1000.
Turning to `CCCOc1ccc(-c2nc(-c3cccc4c3CCN4CC(N)(CO)CO)no2)cc1N` [Example 46, 2-Amino-2-((4-(5-(3-amino-4-propoxyphenyl)-1,2,4-oxadiazol-3-yl)indolin-1-yl)methyl)propane-1,3-diol], in experiment [1], the EC50 came out at 0.088 µM, the “Efficacy (% of maximum)” value was 94% and the EC50S1P1/EC50S1P worked out at 10.61.
As to `CCCCOc1ccc(-c2nc(-c3ccc4c(c3)CCN4CC(N)(CO)CO)no2)cc1Cl` [Example 52, 2-Amino-2-((5-(5-(4-butoxy-3-chlorophenyl)-1,2,4-oxadiazol-3-yl)indolin-1-yl)methyl)propane-1,3-diol], in experiment [1], the response was half-maximal at 0.0345 µM (EC50), the “Efficacy (% of maximum)” value came out at 62% and the EC50S1P1/EC50S1P is 3.55.

(Values after patent US9181182B2, “S1P receptors modulators” (Akaal Pharma PTY LTD, priority 2008, dated 2015).)
